Where “and” joins values, the source holds several entries; their conditions need not be identical. Identical values can stand only once.
What was measured:
[1] = Chronic administration toxicity; format: in vivo, B6C3F1 mice; details: 75 mg/kg IV 3 times per week, approximately 24 weeks
patient-derived GSCs = experiment: GSC viability (CellTiter-Glo, 48 h); format: cell-based, human; parameters: %Survival of cells at day 0 (ATP levels): concentration or dose not given beside the values; %Survival (ATP levels): reference not given here; details: for %Survival (ATP levels): 1 μM, 48 h, individual replicates, listed as PU-HZ151; for %Survival of cells at day 0 (ATP levels): mean
all the P450 enzymes = experiment: Cytochrome P450 profiling, 1-aminobenzotriazole; format: in vitro ADME, human; details: for % PU-HZ151 remaining: ABT
Procedure: (§1) To identify cytochrome P450 enzymes responsible for PU-HZ151’s metabolism in human liver microsomes the following procedure was followed. Phosphate buffer (100 mM, pH 7.4) was prepared monthly and stored at 4 °C. Frozen stock solutions of human liver microsomes (Life Technologies; Cat# HMMCPL) were used once after thawing and were not refrozen. NADPH stock solution (50 mM) in distilled water was prepared fresh daily. […] The stock solutions of these P450 inhibitors were prepared in DMSO. […] The concentration of the chemical inhibitors used in the assay were furafylline (10 μM), tranylcypromine (2 μM), ketoconazole (1 μM), troleandomycin (20 μM), orphenadrine (50 μM), montelukast (3 μM), sulfaphenazole (10 μM), benzylnirvanol (1 μM), quinidine (1 μM), and 1-aminobenzotriazole (1 mM) for all the P450 enzymes. Timing of the reactions was started following the addition of NADPH/magnesium chloride mix and PU-HZ151. Time-dependent chemical inhibitors (furafylline, troleandomycin, orphenadrine, and 1-aminobenzotriazole) were preincubated with human microsomes in the presence of NADPH and magnesium chloride for 15 min before the addition of PU-HZ151 and timing of reactions was started after addition of PU-HZ151. […] Following brief vortexing and centrifugation, a 200 µL aliquot of the supernatant was transferred to a tube, and 10 µL of haloperidol (1 µg mL^−1) as internal standard was added. Following brief vortexing and centrifugation, 50 µL of supernatant was added to a 96-well plate for subsequent LC-MS/MS analysis. PU-HZ151 was similarly tested as above in the absence of CYP inhibitors for comparative purposes. All samples were assayed in duplicate. […] This was similarly performed for incubations of PU-HZ151 performed in the absence of CYP inhibitor.

CYP3A4 = target: T1, CYP3A4 (Homo sapiens, UniProt P08684); experiment: Cytochrome P450 profiling, troleandomycin; format: in vitro ADME; details: for % PU-HZ151 remaining: Troleandomycin
T1 construct: tissue Life Technologies HMMCPL; host or cells: human liver microsomes
T1 sequence (P08684 whole entry): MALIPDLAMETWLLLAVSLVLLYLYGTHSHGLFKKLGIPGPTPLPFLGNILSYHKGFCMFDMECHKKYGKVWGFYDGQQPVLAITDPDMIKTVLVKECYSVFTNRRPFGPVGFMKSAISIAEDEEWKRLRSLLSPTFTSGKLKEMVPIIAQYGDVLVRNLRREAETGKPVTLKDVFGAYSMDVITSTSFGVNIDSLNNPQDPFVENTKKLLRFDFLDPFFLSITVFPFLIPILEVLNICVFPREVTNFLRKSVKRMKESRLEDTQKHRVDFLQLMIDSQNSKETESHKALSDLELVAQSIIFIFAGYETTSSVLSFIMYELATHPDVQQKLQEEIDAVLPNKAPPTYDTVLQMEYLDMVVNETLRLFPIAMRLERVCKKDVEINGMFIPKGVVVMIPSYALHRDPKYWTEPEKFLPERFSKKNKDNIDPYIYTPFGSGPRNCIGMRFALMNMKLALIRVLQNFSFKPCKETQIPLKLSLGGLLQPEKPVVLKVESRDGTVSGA
Procedure: as §1

CYP3A = experiment: Cytochrome P450 profiling, ketoconazole; format: in vitro ADME, human; details: for % PU-HZ151 remaining: Ketoconazole
Procedure: as §1

HER2 in SKBR3 cells = experiment: HER2 degradation; format: cell-based, human
CYP2D6 = target: T2, CYP2D6 (Homo sapiens, UniProt P10635); experiment: Cytochrome P450 profiling, quinidine; format: in vitro ADME; details: for % PU-HZ151 remaining: Quinidine
T2 construct: tissue Life Technologies HMMCPL; host or cells: human liver microsomes
T2 sequence (P10635 whole entry): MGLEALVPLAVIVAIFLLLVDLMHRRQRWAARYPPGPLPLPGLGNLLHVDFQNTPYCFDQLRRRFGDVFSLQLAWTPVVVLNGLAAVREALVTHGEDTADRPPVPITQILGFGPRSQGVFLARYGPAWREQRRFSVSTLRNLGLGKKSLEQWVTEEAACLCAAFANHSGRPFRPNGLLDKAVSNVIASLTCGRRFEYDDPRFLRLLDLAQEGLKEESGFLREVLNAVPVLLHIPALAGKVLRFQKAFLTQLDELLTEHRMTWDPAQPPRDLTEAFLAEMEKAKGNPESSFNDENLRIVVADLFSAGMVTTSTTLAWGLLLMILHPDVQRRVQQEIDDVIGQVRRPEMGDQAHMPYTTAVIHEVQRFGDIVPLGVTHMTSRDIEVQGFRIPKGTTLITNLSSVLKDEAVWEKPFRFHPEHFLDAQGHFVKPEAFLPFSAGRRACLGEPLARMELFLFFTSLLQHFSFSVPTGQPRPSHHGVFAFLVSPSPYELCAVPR
Procedure: as §1

MDA-MB-468 cells = experiment: Cell viability, ATP levels 72 h; format: cell-based, human; parameters: key to Cell viability (ATP levels): ATP levels as % of vehicle (DMSO) control; details: replicates; for Cell viability (ATP levels): MDA-MB-468
Procedure: Supplementary Fig. 15: PU-HZ151 activity in cells is unaffected by Pgp overexpression. a Two Pgp-positive cells lines, Kasumi-1 and HepG2, were tested for epichaperome-positivity. β-Actin, loading control. b ATP levels in cell treated for 72 h with 0 to 1 µM PU-HZ151. Data are presented as means ±s.e.m. of three experimental repeats. Control, vehicle (DMSO) treated cells. c Western blot analysis of aberrant signaling pathway inhibition by […]
(also on this page, place not known: MDA‐MB-468ASPC1Kasumi Hep G2 ATP levels %Control MDA‐MB-468ASPC1Kasumi 1Hep G2 β-Actin HSP90α Native-PAGE SDS PAGE 100- β-Actin 1)

[2] = test system: stress HSP90 from MDA-MB-468 cancer cells; experiment: Binding to stress HSP90; parameters: species or system human; details: study protocol; read-out: affinity (EC50) for stress HSP90

Structure (SMILES): CC(C)(C)CNCCn1c(Sc2cc3c(cc2I)OCO3)nc2c(N)ncnc21 [Compound 85]
- chronic toxicity [1]: No
- %Survival (ATP levels) (patient-derived GSCs; GSC #5): 31.63% and 18.68% and 4.03% and -9.88%
- %Survival (ATP levels) (patient-derived GSCs; GSC #6): -14.27% and -27.68% and -18.96% and -23.61%
- %Survival (ATP levels) (patient-derived GSCs; GSC #7): -51.27% and -33.16% and -43.96% and -19.32%
- %Survival (ATP levels) (patient-derived GSCs; GSC #8): -82.2411% and -82.5656% and -44.1066% and -65.5015% and -65.6835% and -64.1317%
- %Survival (ATP levels) (patient-derived GSCs; GSC #9): -79.4354% and -88.1536% and -74.4757% and -75.2771% and -91.5176% and -88.8402%
- %Survival (ATP levels) (patient-derived GSCs; GSC #10): -43.1943% and -48.7032% and -76.5217% and -90.9365%
- %Survival (ATP levels) (patient-derived GSCs; GSC #13): -9.18% and -20.17% and 1.94% and -5.51% and 23.62% and 22.18%
- %Survival (ATP levels) (patient-derived GSCs; GSC #15): -58.61% and -73.45% and -36.64% and -48.92%
- %Survival (ATP levels) (patient-derived GSCs; GSC #18): -64.4% and -60.27% and -57.05% and -50.97%
- %Survival (ATP levels) (patient-derived GSCs; GSC #19): -11.96% and -35.33% and -40.35% and -2.66% and -9.81%
- %Survival (ATP levels) (patient-derived GSCs; GSC #24): -81.22% and -79.53% and -20.38% and -28.49%
- %Survival (ATP levels) (patient-derived GSCs; GSC #30): -95.74% and -99.62% and -58.98% and -67.84% and -66.79% and -85.07% and -94.89%
- %Survival (ATP levels) (patient-derived GSCs; GSC #31): 36.5% and 32.49% and 59.07% and 79.62% and 33.55% and 9%
- %Survival of cells at day 0 (ATP levels) (patient-derived GSCs; GSC# 5): 11.1%
- %Survival of cells at day 0 (ATP levels) (patient-derived GSCs; GSC# 6): -21.1%
- %Survival of cells at day 0 (ATP levels) (patient-derived GSCs; GSC# 8): -67.4%
- %Survival of cells at day 0 (ATP levels) (patient-derived GSCs; GSC# 9): -82.9%
- %Survival of cells at day 0 (ATP levels) (patient-derived GSCs; GSC# 10): -64.8%
- %Survival of cells at day 0 (ATP levels) (patient-derived GSCs; GSC# 13): 2.1%
- %Survival of cells at day 0 (ATP levels) (patient-derived GSCs; GSC# 15): -54.4%
- %Survival of cells at day 0 (ATP levels) (patient-derived GSCs; GSC# 17): 16.9%
- %Survival of cells at day 0 (ATP levels) (patient-derived GSCs; GSC# 18): -58.2%
- %Survival of cells at day 0 (ATP levels) (patient-derived GSCs; GSC# 19): -20%
- %Survival of cells at day 0 (ATP levels) (patient-derived GSCs; GSC# 24): -52.4%
- %Survival of cells at day 0 (ATP levels) (patient-derived GSCs; GSC# 30): -81.3%
- %Survival of cells at day 0 (ATP levels) (patient-derived GSCs; GSC# 31): 41.7%
- inhibition of PU-HZ151 metabolism (all the P450 enzymes; 1-aminobenzotriazole): 75%
- % PU-HZ151 remaining (all the P450 enzymes; 15 min): 90.5%
- % PU-HZ151 remaining (all the P450 enzymes; 30 min): 83.9%
- % PU-HZ151 remaining (all the P450 enzymes; 60 min): 79.6%
- % PU-HZ151 remaining (CYP3A4; 15 min): 79.8%
- % PU-HZ151 remaining (CYP3A4; 30 min): 66.9%
- % PU-HZ151 remaining (CYP3A4; 60 min): 50.9%
- inhibition of PU-HZ151 metabolism (CYP3A4; troleandomycin): 40%
- PAMPA_BBB (PAMPA-BBB permeability; Supplementary Table 6): 15.4±2.6
- Papp at 16 h, 50 μM (PAMPA-BBB permeability; pig, PAMPA, pH 7.4): 15.4 ± 1.3 ×10⁻⁶ cm/s
- % PU-HZ151 remaining (CYP3A; 15 min): 76.5%
- % PU-HZ151 remaining (CYP3A; 30 min): 63.5%
- % PU-HZ151 remaining (CYP3A; 60 min): 50.6%
- inhibition of PU-HZ151 metabolism (CYP3A; ketoconazole): 40%
- IC50 (HER2 in SKBR3 cells): 8.2 nM
- % PU-HZ151 remaining (CYP2D6; 15 min): 62.9%
- % PU-HZ151 remaining (CYP2D6; 30 min): 43.9%
- % PU-HZ151 remaining (CYP2D6; 60 min): 26.6%
- inhibition of PU-HZ151 metabolism (CYP2D6; quinidine): 11%
- viability at 0.00195312 µM (MDA-MB-468 cells; Homo sapiens, MDA-MB-468, MDA-MB-468, 1.95312 nM): 97.8%
- viability at 0.00390625 µM (MDA-MB-468 cells; Homo sapiens, MDA-MB-468, MDA-MB-468, 3.90625 nM): 107%
- viability at 0.015625 µM (MDA-MB-468 cells; Homo sapiens, MDA-MB-468, MDA-MB-468, 15.625 nM): 107%
- viability at 0.03125 µM (MDA-MB-468 cells; Homo sapiens, MDA-MB-468, MDA-MB-468, 31.25 nM): 34.4%
- viability at 0.125 µM (MDA-MB-468 cells; Homo sapiens, MDA-MB-468, MDA-MB-468, 125 nM): 7.51%
- viability at 0.5 µM (MDA-MB-468 cells; Homo sapiens, MDA-MB-468, MDA-MB-468, 500 nM): 13.5%
- Cell viability (ATP levels) (MDA-MB-468 cells; 1.95312 nM, listed as PU-HZ151, 0.00195312 µM): 110.592 and 103.375
- Cell viability (ATP levels) (MDA-MB-468 cells; 3.90625 nM, listed as PU-HZ151, 0.00390625 µM): 119.425 and 107.367
- Cell viability (ATP levels) (MDA-MB-468 cells; 7.8125 nM, listed as PU-HZ151, 0.0078125 µM): 108.225 and 84.5333 and 99.0667
- Cell viability (ATP levels) (MDA-MB-468 cells; 15.625 nM, listed as PU-HZ151, 0.015625 µM): 116.083 and 108.992
- Cell viability (ATP levels) (MDA-MB-468 cells; 31.25 nM, listed as PU-HZ151, 0.03125 µM): 42.5333 and 26.2083
- Cell viability (ATP levels) (MDA-MB-468 cells; 62.5 nM, listed as PU-HZ151, 0.0625 µM): 4.317 and 13.7833 and 10.55
- Cell viability (ATP levels) (MDA-MB-468 cells; 125 nM, listed as PU-HZ151, 0.125 µM): 8.242 and 5.217
- Cell viability (ATP levels) (MDA-MB-468 cells; 500 nM, listed as PU-HZ151, 0.5 µM): 14.6417 and 13.2667
- Cell viability (ATP levels) (MDA-MB-468 cells; 1000 nM, listed as PU-HZ151, 1 µM): 13.625 and 13.2667 and 6.525
- EC50 [2]: 6.9 nM
